This note sets out measurements from patent US10201531B2, “Indazolyl-oxo-isothiazole compounds” (MOCHIDA PHARMACEUTICAL CO., LTD., priority 2015, dated 2019).

pEC50: −log10 of the molar value. A value given as a limit tells only on which side of the number the result lay.

The test relates to Nrf2. Briefly: Evaluation of Nrf2 activation ability (Nrf2d-LacZ / Keap1 HEK293 reporter, Beta-Glo luminescence). The format is cell-based, human. As to conditions: Pharmacological Test Example 1, rated A/B/C. The gist of the method: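 HEK293 cells stably expressing a human Nrf2 degron–LacZ fusion plus human Keap1 were exposed to compound for 3 h at 37° C. Reporter β-galactosidase was read by Beta-Glo luminescence after 1 h at RT. Activation is given as % of the signal with 100 nM CDDO-Im.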
Take `[O-][s+]1nc(O)cc1-n1cc(-c2cc(C(F)(F)F)cc(C(F)(F)F)c2)cn1` (centres unmarked) [Example 368]: the pEC50 (as a rule, −log10 of the EC50, conventionally taken in molar units) was greater than 6.00.

As for `N#CC1(c2ccc(-c3cnn(-c4cc(O)n[s+]4[O-])c3)cc2)CC1` (centres unmarked) [Example 369], the pEC50 is 5.30 to 6.00.

Turning to `O=C(Cc1ccc(-c2cnn(-c3cc(O)n[s+]3[O-])c2)cc1)N1CCc2ccccc21` (centres unmarked) [Example 373], the pEC50 was 5.00 to 5.30.

Regarding `[O-][s+]1nc(O)cc1-n1cc(-c2ccc(Oc3ccc(C(F)(F)F)cc3Cl)cc2)cn1` (centres unmarked) [Example 374], the pEC50 was 5.30 to 6.00.

Regarding `[O-][s+]1nc(O)cc1-n1cc(-c2ccc(OCc3cccc(C(F)(F)F)c3)cc2)cn1` (centres unmarked) [Example 375], the pEC50 is 5.30 to 6.00.

As to `Cc1cccc(C)c1COc1ccc(-c2cnn(-c3cc(O)n[s+]3[O-])c2)cc1` (centres unmarked) [Example 376], the pEC50 is 5.30 to 6.00.

In turn, `[O-][s+]1nc(O)cc1-n1cc(-c2ccc(Oc3ccccc3)cc2)cn1` (centres unmarked) [Example 377] had a pEC50 greater than 6.00.

In turn, `[O-][s+]1nc(O)cc1-n1cc(-c2ccc(Oc3ccccc3)cc2)cn1` (centres unmarked) [Example 378] showed a pEC50 greater than 6.00.

The compound `[O-][s+]1nc(O)cc1-n1cc(C2=Cc3ccccc3CC2)cn1` (centres unmarked) [Example 381] had a pEC50 greater than 6.00.

The compound `[O-][s+]1nc(O)cc1-n1cc(-c2cccc3cccnc23)cn1` (centres unmarked) [Example 382] had a pEC50 greater than 6.00.

`[O-][s+]1nc(O)cc1-n1cc(-c2ccc3cccnc3c2)cn1` (centres unmarked) [Example 383] showed a pEC50 greater than 6.00.

Turning to `[O-][s+]1nc(O)cc1-n1cc(C2=Cc3ccccc3C2)cn1` (centres unmarked) [Example 384], the pEC50 is greater than 6.00.

In turn, `[O-][s+]1nc(O)cc1-n1cc(-c2ccccn2)cn1` (centres unmarked) [Example 386] had a pEC50 of 5.30 to 6.00.

Compound `COc1ccccc1-c1cnn(-c2cc(O)n[s+]2[O-])c1` (centres unmarked) [Example 387] showed a negative logarithm of the EC50 (pEC50) greater than 6.00.

Turning to `COc1cccc(-c2cnn(-c3cc(O)n[s+]3[O-])c2)c1` (centres unmarked) [Example 388], the pEC50 is greater than 6.00.

`COc1ccc(-c2cnn(-c3cc(O)n[s+]3[O-])c2)cc1` (centres unmarked) [Example 389] had a pEC50 greater than 6.00.

As to `COc1cc(-c2cnn(-c3cc(O)n[s+]3[O-])c2)cc(OC)c1OC` (centres unmarked) [Example 390], the pEC50 was 5.30 to 6.00.

`COc1ccc(-c2cnn(-c3cc(O)n[s+]3[O-])c2)cn1` (centres unmarked) [Example 392] showed a pEC50 greater than 6.00.

`COc1ncccc1-c1cnn(-c2cc(O)n[s+]2[O-])c1` (centres unmarked) [Example 393] had a pEC50 greater than 6.00.

Compound `[O-][s+]1nc(O)cc1-n1cc(C2=Cc3ccccc3C2)cn1` (centres unmarked) [Example 394] gave a negative-log EC50 (pEC50) of 5.30 to 6.00.

`[O-][s+]1nc(O)cc1-n1cc(-c2cccnc2C(F)(F)F)cn1` (centres unmarked) [Example 395] gave a negative logarithm of the EC50 (pEC50) of 5.30 to 6.00.

On to `[O-][s+]1nc(O)cc1-n1cc(-c2ccc(C(F)(F)F)nc2)cn1` (centres unmarked) [Example 396], for which the pEC50 was 5.30 to 6.00.

Take `[O-][s+]1nc(O)cc1-n1cc(C2Cc3ccccc3C2)cn1` (centres unmarked) [Example 397]: the pEC50 was greater than 6.00.

On to `COc1cncc(-c2cnn(-c3cc(O)n[s+]3[O-])c2)c1` (centres unmarked) [Example 398], for which the pEC50 was 5.30 to 6.00.

The compound `COc1ccc(-c2cnn(-c3cc(O)n[s+]3[O-])c2)c(OC)n1` (centres unmarked) [Example 399] gave a pEC50 greater than 6.00.

Compound `CNc1ccc(-c2cnn(-c3cc(O)n[s+]3[O-])c2)cn1` (centres unmarked) [Example 400] had a pEC50 of 5.30 to 6.00.

In the case of `Cc1cncc(-c2cnn(-c3cc(O)n[s+]3[O-])c2)c1` (centres unmarked) [Example 401], the pEC50 is 5.00 to 5.30.

The compound `COc1ccc(-c2cnn(-c3cc(O)n[s+]3[O-])c2)c(C)n1` (centres unmarked) [Example 402] showed a pEC50 of 5.30 to 6.00.

With `COc1cc(-c2cnn(-c3cc(O)n[s+]3[O-])c2)ccn1` (centres unmarked) [Example 404], the pEC50 was greater than 6.00.

Turning to `CN(C)Cc1ccc(-c2cnn(-c3cc(O)n[s+]3[O-])c2)cc1` (centres unmarked) [Example 405], the negative logarithm of the EC50 (pEC50) was 5.30 to 6.00.

Consider `CN(C)Cc1cccc(-c2cnn(-c3cc(O)n[s+]3[O-])c2)c1` (centres unmarked) [Example 406], for which the pEC50 was 5.00 to 5.30.

In the case of `[O-][s+]1nc(O)cc1-n1cc(-c2cnccn2)cn1` (centres unmarked) [Example 407], the negative-log EC50 (pEC50) is 5.30 to 6.00.

For `[O-][s+]1nc(O)cc1-n1cc(-c2cnc3ccccc3n2)cn1` (centres unmarked) [Example 408], the pEC50 is greater than 6.00.

Compound `[O-][s+]1nc(O)cc1-n1cc(CCOc2cccnc2)cn1` (centres unmarked) [Example 412] gave a negative-log EC50 (pEC50) of 5.30 to 6.00.

For the compound `Cc1cnc(-c2cnn(-c3cc(O)n[s+]3[O-])c2)cn1` (centres unmarked) [Example 413], the negative logarithm of the EC50 (pEC50) was 5.30 to 6.00.

`[O-][s+]1nc(O)cc1-n1cc(-c2cnc(C3CC3)cn2)cn1` (centres unmarked) [Example 414] showed a pEC50 greater than 6.00.

Compound `[O-][s+]1nc(O)cc1-n1cc(-c2cnc(C(F)(F)F)cn2)cn1` (centres unmarked) [Example 415] gave a pEC50 of 5.30 to 6.00.

Regarding `Cc1cncc(-c2cnn(-c3cc(O)n[s+]3[O-])c2)n1` (centres unmarked) [Example 416], the pEC50 is 5.30 to 6.00.

As to `[O-][s+]1nc(O)cc1-n1cc2cc(-c3cnccn3)ccc2n1` (centres unmarked) [Example 417], the pEC50 was 5.30 to 6.00.

With `Cn1c(=O)n(-c2cnn(-c3cc(O)n[s+]3[O-])c2)c2ccccc21` (centres unmarked) [Example 419], the negative-log EC50 (pEC50) is 5.30 to 6.00.

`CC1(C)C(=O)N(c2cnn(-c3cc(O)n[s+]3[O-])c2)c2ccccc21` (centres unmarked) [Example 420] had a negative logarithm of the EC50 (pEC50) of 5.30 to 6.00.

`Cc1cnc(-c2cnn(-c3cc(O)n[s+]3[O-])c2)c(C)n1` (centres unmarked) [Example 421] gave a pEC50 of 5.30 to 6.00.

`[O-][s+]1nc(O)cc1-n1cc(-n2cccn2)cn1` (centres unmarked) [Example 422] showed a negative logarithm of the EC50 (pEC50) of 5.00 to 5.30.

On to `[O-][s+]1nc(O)cc1-n1cc(-c2ncccn2)cn1` (centres unmarked) [Example 423], for which the pEC50 was 5.30 to 6.00.

For `Cn1c(=O)oc2cc(-c3cnn(-c4cc(O)n[s+]4[O-])c3)ccc21` (centres unmarked) [Example 424], the negative logarithm of the EC50 (pEC50) is 5.00 to 5.30.

The compound `CN1C(=O)C(C)(C)c2cc(-c3cnn(-c4cc(O)n[s+]4[O-])c3)ccc21` (centres unmarked) [Example 425] had a pEC50 of 5.30 to 6.00.

Compound `[O-][s+]1nc(O)cc1-n1cc(-c2cnccn2)cn1` (centres unmarked) [Example 428] gave a pEC50 of 5.00 to 5.30.

Consider `O=c1oc2cc(-c3cnn(-c4cc(O)n[s+]4[O-])c3)ccc2n1CC1CC1` (centres unmarked) [Example 429], for which the pEC50 is 5.30 to 6.00.

In turn, `CC1(C)C(=O)N(CC2CC2)c2ccc(-c3cnn(-c4cc(O)n[s+]4[O-])c3)cc21` (centres unmarked) [Example 430] had a pEC50 of 5.30 to 6.00.

Compound `Cc1ccnc(-c2cnn(-c3cc(O)n[s+]3[O-])c2)n1` (centres unmarked) [Example 433] showed a pEC50 of 5.30 to 6.00.

The compound `COc1nc(Cl)ccc1-c1cnn(-c2cc(O)n[s+]2[O-])c1` (centres unmarked) [Example 435] had a pEC50 greater than 6.00.

Consider `[O-][s+]1nc(O)cc1-n1cc(C#Cc2ccc(Cl)nc2)cn1` (centres unmarked) [Example 436], for which the pEC50 is greater than 6.00.

On to `COc1nc(-c2ccc(C3CC3)nc2)ccc1-c1cnn(-c2cc(O)n[s+]2[O-])c1` (centres unmarked) [Example 437], for which the pEC50 is 5.30 to 6.00.

In turn, `[O-][s+]1nc(O)cc1-n1cc(-c2ccc(F)nc2)cn1` (centres unmarked) [Example 438] showed a pEC50 of 5.30 to 6.00.

In turn, `[O-][s+]1nc(O)cc1-n1cc(-c2ccc(Cl)nc2)cn1` (centres unmarked) [Example 439] had a pEC50 greater than 6.00.

On to `COc1nc(Cl)ccc1-c1cnn(-c2cc(O)n[s+]2[O-])c1` (centres unmarked) [Example 440], for which the pEC50 is greater than 6.00.

On to `[O-][s+]1nc(O)cc1-n1cc(-c2ccc(-c3ccc(N4CCCC4)nc3)nc2)cn1` (centres unmarked) [Example 441], for which the pEC50 was greater than 6.00.

`[O-][s+]1nc(O)cc1-n1cc(-c2ccc(-c3ccc(N4CCCCC4)nc3)nc2)cn1` (centres unmarked) [Example 442]: the negative logarithm of the EC50 (pEC50) is greater than 6.00.

The compound `[O-][s+]1nc(O)cc1-n1cc(-c2ccc(F)nc2)cn1` (centres unmarked) [Example 443] gave a pEC50 of 5.30 to 6.00.
